The values that follow come from patent publication US10493045B2, “Method for treating alcohol dependence or alcohol abuse” (priority 2016, dated 2019).

The subject of series [1] is BD-II patients with comorbid alcohol dependence. Put plainly: 12-week open-label low-dose add-on memantine treatment: clinical severity (HDRS, YMRS) and alcohol use. Format: in vivo, human. The source says:
BD-II patients with comorbid alcohol dependence were recruited from outpatient and inpatient settings in Taiwan. All patients were initially evaluated by an attending psychiatrist and then given a structural interview by a clinical psychologist to determine according to the Diagnostic and Statistical Manual of Mental Disorders, Fourth Edition, Text Revision (DSM-IV-TR), and the Chinese version of the Modified Schedule of Affective Disorder and Schizophrenia-Life Time (SADS-L) was used, which had good inter-rater reliability. Patients suffering from major mental illnesses other than BD-II and alcohol dependence and patients who had taken memantine within 1 week before the study began were excluded.
(§1) Eligible patients were given low-dose (less than 5 mg/day) add-on memantine (5 mg/day) after an initial screening, with open-label valproic acid (VPA) treatment (500 or 1000 mg/day or […] in plasma) which had begun when they joined the study. The severity of mood symptoms was assessed by using the Hamilton Depression Rating Scale (HDRS) and the Young Mania Rating Scale (YMRS). Only patients with moderate mood symptoms (HDRS≥18 or YMRS≥14) were recruited. The exact amount of alcohol used by each patient was assessed by using the Chinese version of the Modified SADS-L. Symptom severity and alcohol use were assessed at baseline, and treatment responses were measured on day 7 of weeks 1, 2, 4, 8, and 12. Concomitant benzodiazepine medications (lorazepam<8 mg and chlordiazepoxide<240 mg) were used for nighttime sedation and withdrawal symptoms during the study. Up to 20 mg/day of fluoxetine was permitted for associated depressive symptoms, and 1-3 mg of risperidone was used for hypomanic symptoms.
(§2) The intent to-treat (ITT) analysis set included all patients who had taken at least one dose of the studied drug, and had undergone one baseline assessment and at least one post-baseline assessment. All outcome variables—HDRS, YMRS, cytokine levels, plasma BDNF levels, and metabolic parameters—in the ITT set were analyzed. Missing data were filled in by using the last observation carried forward (LOCF) method.
(§3) The overall within-group changes of each outcome over 12 weeks were analyzed by using generalized estimating equations (GEEs). The present invention ran 10 models and each outcome was deemed as a dependent variable. In each model, treatment duration, gender, and age were considered as independent variables. The covariance structure used was the autoregressive (AR [1]) model. The significance of change of each outcome over 12-week follow-up was represented by the variable “treatment duration.” Linear regression analysis was used to analyze correlations between changes in alcohol use and changes in cytokine and BDNF levels in 12 weeks. Changes in alcohol use were dependent variables, and changes in HDRS and YMRS scores, and in plasma cytokine and BDNF levels (controlled for gender, age, and baseline clinical severity) were independent variables. SPSS 22.0 for Windows was used for all statistical computations. Significance was set at p<0.05.

Series [2] has as its system plasma TNF-α, CRP, TGF-β1, IL-8, IL-10, and BDNF. Nature of the series: Plasma cytokine and BDNF levels by ELISA during 12-week add-on memantine treatment. It counts as in vivo, human. The protocol:
as §1
Ten milliliters of whole blood was withdrawn from the antecubital vein of each patient when clinical severity was assessed: at baseline, and on day 7 of weeks 1, 2, 4, 8, and 12. Plasma, which was isolated from the whole blood after it had been centrifuged at 3000 g for 15 min at 4° C., was immediately stored at −80° C. The enzyme-linked immunosorbent assay was used to quantify the cytokine levels by ELISA reader (SpectraMax® M2e, Molecular Devices, USA). Sample processing and data analysis were done according to the manufacturer's instructions. The immunological parameters—plasma TNF-α, CRP, TGF-β1, IL-8, IL-10, and BDNF—were analyzed.
as §2, §3
(In general: In an ELISA, binding on a coated surface is turned into a signal by an enzyme label.)

The nature of series [3]: Plasma memantine concentration in treated patients. Format: in vivo, human. Conditions: patients given 5 mg/day of memantine.
The next series addresses NMDA receptors. Particulars: read-out: 50% inhibition concentration [IC50], block of NMDA receptors; cited from earlier work.
The subject of series [4] is morphine-induced conditioned-place-preference behavior. Particulars: rats; low-dose 0.02 mg/kg; cited from earlier work.
Series [5] has as its system opioid-dependent patients undergoing methadone maintenance treatment. Particulars: add-on memantine; cited from earlier work.
Another series has as its system post-dependent (PD) rats. Conditions: injection 25 mg/kg; cited from earlier work.
In another series the test system is alcohol use. Conditions: up to 40 mg/day of memantine; cited from earlier work.

Structures are written as SMILES. Several values for one entry are separate records, joined by “and”; a condition that tells them apart may be missing. Equal values may be shown once.

On to `CC12CC3CC(C)(C1)CC(N)(C3)C2` [memantine], for which the “Patients who stopped drinking during the first week of memantine treatment” value in series [1] (15 patients of 45, first week) is 33.3%. For the same compound, the “Patients who reduced their alcohol use to 0 unit after 12 weeks” value in series [1] (22/26 patients, after 12 weeks) was found to be 84.6%. In addition, the “HDRS, mean at endpoint” value in series [1] (BD-II patients with comorbid alcohol dependence, add-on memantine less than 5 mg/day plus VPA, endpoint 12 weeks, n = 26, baseline mean 14.4 (n = 45)) was 9.4. Besides, in series [1] (after 12 weeks), the “Reduction of alcohol use after 12 weeks of treatment, all of the patients” value was above 50%. In addition, the “YMRS, mean at endpoint” value in series [1] (endpoint 12 weeks, n = 26, baseline mean 13.8 (n = 45)) was 9.4. In addition, the “Alcohol use (unit), mean at endpoint” value in series [1] (endpoint 12 weeks, n = 26, baseline mean 73.9 (n = 45)) worked out at 11.8 unit. Moreover, the “IL-10, mean at endpoint” value in series [2] (endpoint 12 weeks, n = 26, baseline mean 2.09) worked out at 1.92. In series [2] (endpoint 12 weeks, n = 26, baseline mean 2.64), the “TNF-α, mean at endpoint” value was determined as 2.66. Further, the “IL-8, mean at endpoint” value in series [2] (endpoint 12 weeks, n = 26, baseline mean 17.64) came out at 10.22. Further, the “CRP, mean at endpoint” value in series [2] (endpoint 12 weeks, n = 26, baseline mean 2960.48) is 2382.29. For the same compound, the “BDNF, mean at endpoint” value in series [2] (endpoint 12 weeks, n = 26, baseline mean 16196.64) is recorded as 18910.46. In addition, the “TGF-β1, mean at endpoint” value in series [2] (endpoint 12 weeks, n = 26, baseline mean 30884.32) worked out at 27653.85. Moreover, the “Change in TGF-β1 over 12 weeks of treatment” value in series [2] (within-group change, GEE, p 0.080) is recorded as −3586.37. Also, the “Change in IL-10 over 12 weeks of treatment” value in series [2] (within-group change, GEE, p 0.605) was −0.182. In series [2] (within-group change, GEE, p 0.89), the “Change in TNF-α over 12 weeks of treatment” value was 0.04. Further, in series [3], the Plasma memantine concentrations is 10-50 ng/ml and 0.05-0.2 μM. The IC50 on NMDA receptors is 2 to 3 µM. Moreover, the Morphine-induced conditioned-place-preference behavior entry in series [4] is reported as “abolishes”. Further, in series [5], the “Plasma tumor necrosis factor-α (TNF-α) levels” value is “significantly downregulates”, the Required methadone dose result is on record as “reduces” and the “Transforming growth factor-β1 (TGF-β1) levels” value is listed as “upregulates”. Moreover, in the series on post-dependent (PD) rats, the “Alcohol drinking during acute withdrawal” value is reported as “reduced” and the “Relapses of alcohol dependence after protracted abstinence” value is reported as “did not reduce”. For the same compound, the “Alcohol use as compared to placebo” value in the series with alcohol use is reported as “not significantly reduced”.
